The text below walks through data of ChEMBL document CHEMBL1151463, “Human immunodeficiency virus types 1 and 2 exhibit comparable sensitivities to Zidovudine and other nucleoside analog inhibitors in vitro” (Antimicrob Agents Chemother, 2008).

The test system of assay [1] is Human immunodeficiency virus 1. Put plainly: Antiviral activity against wild type HIV1 NL4-3 produced from full length pR9deltaApa infected in human MAGIC-5A cells assessed as inhibition of Lac+ foci expression after 40 hrs. It is filed as functional, organism-based. To be noted: Human immunodeficiency virus 1, NL4-3, MAGIC-5A.
The subject of assay [2] is Human immunodeficiency virus 2. Put plainly: Antiviral activity against wild type HIV2 ROD produced from full length pROD9 infected in human MAGIC-5A cells assessed as inhibition of Lac+ foci expression after 40 hrs. It is filed as functional, organism-based. As to conditions: for EC50: Human immunodeficiency virus 2, ISOLATE ROD.
For assay [3], the system named is Human immunodeficiency virus 1. Put plainly: Antiviral activity against multinucleoside-resistant HIV1 NL4-3 harboring A62V, V75I, F77L, F116Y, Q151M mutation in viral reverse transcriptase infected in human MAGIC-5A cells assessed as inhibition of Lac+ foci expression after 40 hrs. It is filed as functional, organism-based. To be noted: Human immunodeficiency virus 1, NL4-3, MAGIC-5A.

Assay [4] has as its system Human immunodeficiency virus 1. Put plainly: Selectivity ratio of EC50 for multinucleoside-resistant HIV1 NL4-3 harboring A62V, V75I, F77L, F116Y, Q151M mutation in viral reverse transcriptase to EC50 for wild type HIV1 NL4-3. It is filed as functional.
The test system of assay [5] is Human immunodeficiency virus 2. Put plainly: Antiviral activity against recombinant HIV2 ROD carrying HIV2 UC2 reverse transcriptase infected in human MAGIC-5A cells assessed as inhibition of Lac+ foci expression after 40 hrs. It is filed as functional, organism-based. As to conditions: Human immunodeficiency virus 2, ISOLATE ROD.
Assay [6] has as its system Human immunodeficiency virus 2. Put plainly: Antiviral activity against wild type HIV2 CDC310319 infected in human MAGIC-5A cells assessed as inhibition of Lac+ foci expression after 40 hrs. Type of assay: functional, organism-based.

Activity calls are given as the source filed them. No cut-off for these calls is given here.

Turning to `Nc1nc(=O)n([C@@H]2CS[C@H](CO)O2)cc1F` [EMTRICITABINE], the figures for the EC50 in assay [1], in assay [2] and in assay [3] were 0.27 µM, 0.5 µM and 0.79 µM, respectively. In addition, the “Ratio EC50” value in assay [4] is recorded as 3.
As for `C[C@H](Cn1cnc2c(N)ncnc21)OCP(=O)(O)O` [TENOFOVIR ANHYDROUS], the EC50 in assay [1] came out at 7.2 µM; in assay [2], 7.2 µM; in assay [3], 26 µM. Besides, the “Ratio EC50” value in assay [4] amounted to 4.
In the case of `O=c1[nH]cnc2c1ncn2[C@H]1CC[C@@H](CO)O1` [DIDANOSINE], the EC50 in assay [1] stood at 4.7 µM; in assay [2], 8 µM; in assay [3] it was 45 µM. Besides, the “Ratio EC50” value in assay [4] came out at 10.
For the compound `Cc1cn([C@H]2C[C@H](N=[N+]=[N-])[C@@H](CO)O2)c(=O)[nH]c1=O` [ZIDOVUDINE], the EC50 was found to be 0.16 µM in assay [1], 0.12 µM in assay [2], 7 µM in assay [3] and 0.071 µM in assay [5]. The Activity entry in assay [2] (ISOLATE ROD) is “Dose-dependent effect”. Also, in assay [4], the “Ratio EC50” value is given as 43. The outcome in assay [6] was Active.
For `Nc1ccn([C@@H]2CS[C@H](CO)O2)c(=O)n1` [LAMIVUDINE], the EC50 is 0.88 µM in assay [1], 2 µM in assay [2] and 3.7 µM in assay [3]. In addition, the “Ratio EC50” value in assay [4] was found to be 4.
The matching figures for `Nc1nc(NC2CC2)c2ncn([C@H]3C=C[C@@H](CO)C3)c2n1` [ABACAVIR]: 7.6 µM, 7.2 µM, 40 µM and 5.
Consider `Cc1cn([C@H]2C=C[C@@H](CO)O2)c(=O)[nH]c1=O` [STAVUDINE], for which the EC50 in assay [1] came to 5.5 µM; in assay [2] it was 7.1 µM; in assay [3] it was 79 µM. In assay [4], the “Ratio EC50” value is listed as 14.

For orientation: EC50 means the midpoint of the concentration-response curve.
